Experimental data published in patent publication US20190351029A1, “MODULATION OF ISCHEMIC CELL BIOENERGETICS” (East Carolina University, priority 2017, published 2019).
Structures can show the parent of a compound that is named as a salt.

system: endothelial (HUVEC) cells; assay: AAV-mediated expression of PFKFB3 in endothelial cells; type: cell-based, human; settings: HUVEC on Matrigel; PFKFB3 inhibited
Excerpt: To begin examining the therapeutic potential of PFKFB3 in PAD, an AAV vector was generated to deliver PFKFB3 cloning the PFKFB3 coding sequence into an AAV2 ITR vector with expression driven by the ubiquitous cytomegalovirus promoter (CMV) promoter. AAV-PFKFB3 or control virus (AAV-DJ-GFP) was delivered to muscle (primary mouse myoblast) and endothelial (HUVEC) cells at a multiplicity of infection (MOI) of 10,000.

| SMILES | effect on enhanced tube formation of AAV-DJ-PFKFB3 treated endothelial cells |
| --- | --- |
| O=C(C=Cc1ccc2ccccc2n1)c1ccncc1 [PFK15, 1-(4-pyridinyl)-3-(2-quinolinyl)-2-propen-1-one] | abolished |

system: hypoxic cell growth; assay: High-throughput hypoxic cell growth assays; type: cell-based; settings: not given
Excerpt: In some embodiments, the presently disclosed subject matter relates to the discovery that genetically or pharmacologically enhancing glycolytic metabolism is protective against hypoxia/ischemia. Particularly, in accordance with some embodiments of the presently disclosed subject matter, it has been uncovered that elevated expression of the enzyme 6-phosphofructo-2-kinase/fructose-2,6-bisphosphatase 3 (PFKFB3), a potent allosteric activator of glycolysis, prevents ischemic injury and improves cell survival, while small molecular inhibition of PFKFB3 severely exacerbates ischemic injury. Thus, in some embodiments, the genetic target is PFKFB3. […] The compounds include, for example, metform in, phenformin, biperiden hydrochloride, clemastine, meclizine, berberine chloride, vinpocetine, pimozide, and mefloquine.
Many Food and Drug Administration (FDA) approved drugs and other chemical compounds have off-target effects on cellular metabolism, including the ability to enhance glycolytic metabolism. Cardiomyoblast (H9c2; obtained from ATCC) cells were treated with a number of compounds (berberine, clofoctol, phenformin, metformin, pentamidine, clemastine, pimoxide, bisacodyl, meclizine, mefloquine, papaverine, flunarizine, biperiden, vinpocetine, and niclosamide) at a final concentration of 1 μM prior to experimental hypoxia for 72 hours. […] Human kidney fibroblast cells were also treated with the compound prior to experimental hypoxia. […] In addition, primary mouse cortical neurons were treated with the compounds prior to experimental ischemia.

| SMILES | cell growth/survival in hypoxia |
| --- | --- |
| CN1CCC[C@@H]1CCO[C@](C)(c1ccccc1)c1ccc(Cl)cc1 [clemastine] | improve cell growth/survival in hypoxia |
| CN(C)C(=N)N=C(N)N [metform in, metformin] | improve cell growth/survival in hypoxia |
| Cc1cccc(CN2CCN(C(c3ccccc3)c3ccc(Cl)cc3)CC2)c1 (stereo not drawn) [meclizine] | improve cell growth/survival in hypoxia |
| COc1ccc2cc3[n+](cc2c1OC)CCc1cc2c(cc1-3)OCO2 [berberine chloride] | improve cell growth/survival in hypoxia |
| [H]/N=C(/N)N/C(=N/[H])NCCc1ccccc1 [phenformin] | improve cell growth/survival in hypoxia |
| CCOC(=O)C1=C[C@]2(CC)CCCN3CCc4c(n1c1ccccc41)[C@@H]32 [vinpocetine] | improve cell growth/survival in hypoxia |
| OC(c1cc(C(F)(F)F)nc2c(C(F)(F)F)cccc12)C1CCCCN1 (stereo not drawn) [mefloquine] | improve cell growth/survival in hypoxia |
| OC(CCN1CCCCC1)(c1ccccc1)C1CC2C=CC1C2 (stereo not drawn) [biperiden hydrochloride] | improve cell growth/survival in hypoxia |
